Assay results: paper PMC5448077, “Development of an orally available inhibitor of CLK1 for skipping a mutated dystrophin exon in Duchenne muscular dystrophy” (Scientific Reports, 2017)

Tests used:
Assay in all cases: biochemical
FLT3 = FLT3 (Homo sapiens, UniProt P36888)
Method: (§1) These assays rely on the phosphorylation of small synthetic peptides developed for each kinase, and detect activity by changes in electrophoretic mobility (MSA assay) or by binding of a fluorescently labelled peptide to a large micro-particle and concomitant polarization increases (IMAP assay). Reaction conditions for each kinase are described in Supplementary Table S5. All kinase assays were carried out at Carna Biosciences (Kobe, Japan). The inhibitory map was constructed using Kinome Render[41]. Inhibitor (4×), substrate/ATP-Metal (4×), and kinase (2×) solutions were prepared with assay buffer (20 mM HEPES, 0.01% Triton X-100, 2 mM DTT, pH 7.5) and mixed in 384-well plates at room temperature for 1 or 5 h depending on the kinase. Reactions were stopped by the addition of termination buffer (QuickScout Screening Assist MSA; Carna Biosciences). The entire reaction mixture was then applied to a LabChip system (Perkin-Elmer, Waltham, MA, USA) and the product and substrate peptide peaks were separated and quantified, and then heights of product (P) and substrate (S) peptide peaks were calculated. The level of kinase activity was evaluated with the following equation: activity = P/(P + S).

MAPKAPK2 = MAPKAPK2 (Homo sapiens, UniProt P49137)
Method: as §1

CaMK1α = biological target: T1, CaMK1α (Homo sapiens, UniProt Q14012)
T1 construct: gene CAMK1
Method: as §1

CDK6/CycD3 = CDK6/CycD3 (Homo sapiens, UniProt Q00534)
Method: as §1

MINK = biological target: T2, MINK (Homo sapiens, UniProt Q8N4C8)
T2 construct: gene MINK1
Method: as §1

SGK = biological target: T3, SGK (Homo sapiens, UniProt O00141)
T3 construct: gene SGK1
Method: as §1

BRSK1 = BRSK1 (Homo sapiens, UniProt Q8TDC3)
Method: as §1

AurA = biological target: T4, AurA (Homo sapiens, UniProt O14965)
T4 construct: gene AURKA
Method: as §1

p70S6Kβ = biological target: T5, p70S6Kβ (Homo sapiens, UniProt Q9UBS0)
T5 construct: gene RPS6KB2
Method: as §1

SRC = SRC (Homo sapiens, UniProt P12931)
Method: as §1

IKKβ = biological target: T6, IKKβ (Homo sapiens, UniProt O14920)
T6 construct: gene IKBKB
Method: as §1

PKD1 = biological target: T7, PKD1 (Homo sapiens, UniProt Q15139)
T7 construct: gene PRKD1
Method: as §1

IRAK1 = IRAK1 (Homo sapiens, UniProt P51617)
Method: as §1

NEK1 = NEK1 (Homo sapiens, UniProt Q96PY6)
Method: as §1

SRPK2 = SRPK2 (Homo sapiens, UniProt P78362)
Method: as §1

TXK = TXK (Homo sapiens, UniProt P42681)
Method: as §1

NuaK1 = NuaK1 (Homo sapiens, UniProt O60285)
Method: as §1

SPHK1 = SPHK1 (Homo sapiens, UniProt Q9NYA1)
Method: as §1

MNK1 = biological target: T8, MNK1 (Homo sapiens, UniProt Q9BUB5)
T8 construct: gene MKNK1
Method: as §1

TSSK3 = TSSK3 (Homo sapiens, UniProt Q96PN8)
Method: as §1

PHKG2 = PHKG2 (Homo sapiens, UniProt P15735)
Method: as §1

DDR1 = DDR1 (Homo sapiens, UniProt Q08345)
Method: as §1

FLT4 = FLT4 (Homo sapiens, UniProt P35916)
Method: as §1

TRKA = biological target: T9, TRKA (Homo sapiens, UniProt P04629)
T9 construct: gene NTRK1
Method: as §1

ROCK1 = ROCK1 (Homo sapiens, UniProt Q13464)
Method: as §1

BTK = BTK (Homo sapiens, UniProt Q06187)
Method: as §1

CDK7/CycH/MAT1 = CDK7/CycH/MAT1 (Homo sapiens, UniProt P50613)
Method: as §1

CDK3/CycE1 = CDK3/CycE1 (Homo sapiens, UniProt Q00526)
Method: as §1

PKCι = biological target: T10, PKCι (Homo sapiens, UniProt P41743)
T10 construct: gene PRKCI
Method: as §1

Haspin = Haspin (Homo sapiens, UniProt Q8TF76)
Method: as §1

SGK3 = SGK3 (Homo sapiens, UniProt Q96BR1)
Method: as §1

T2 sequence (Q8N4C8 whole entry): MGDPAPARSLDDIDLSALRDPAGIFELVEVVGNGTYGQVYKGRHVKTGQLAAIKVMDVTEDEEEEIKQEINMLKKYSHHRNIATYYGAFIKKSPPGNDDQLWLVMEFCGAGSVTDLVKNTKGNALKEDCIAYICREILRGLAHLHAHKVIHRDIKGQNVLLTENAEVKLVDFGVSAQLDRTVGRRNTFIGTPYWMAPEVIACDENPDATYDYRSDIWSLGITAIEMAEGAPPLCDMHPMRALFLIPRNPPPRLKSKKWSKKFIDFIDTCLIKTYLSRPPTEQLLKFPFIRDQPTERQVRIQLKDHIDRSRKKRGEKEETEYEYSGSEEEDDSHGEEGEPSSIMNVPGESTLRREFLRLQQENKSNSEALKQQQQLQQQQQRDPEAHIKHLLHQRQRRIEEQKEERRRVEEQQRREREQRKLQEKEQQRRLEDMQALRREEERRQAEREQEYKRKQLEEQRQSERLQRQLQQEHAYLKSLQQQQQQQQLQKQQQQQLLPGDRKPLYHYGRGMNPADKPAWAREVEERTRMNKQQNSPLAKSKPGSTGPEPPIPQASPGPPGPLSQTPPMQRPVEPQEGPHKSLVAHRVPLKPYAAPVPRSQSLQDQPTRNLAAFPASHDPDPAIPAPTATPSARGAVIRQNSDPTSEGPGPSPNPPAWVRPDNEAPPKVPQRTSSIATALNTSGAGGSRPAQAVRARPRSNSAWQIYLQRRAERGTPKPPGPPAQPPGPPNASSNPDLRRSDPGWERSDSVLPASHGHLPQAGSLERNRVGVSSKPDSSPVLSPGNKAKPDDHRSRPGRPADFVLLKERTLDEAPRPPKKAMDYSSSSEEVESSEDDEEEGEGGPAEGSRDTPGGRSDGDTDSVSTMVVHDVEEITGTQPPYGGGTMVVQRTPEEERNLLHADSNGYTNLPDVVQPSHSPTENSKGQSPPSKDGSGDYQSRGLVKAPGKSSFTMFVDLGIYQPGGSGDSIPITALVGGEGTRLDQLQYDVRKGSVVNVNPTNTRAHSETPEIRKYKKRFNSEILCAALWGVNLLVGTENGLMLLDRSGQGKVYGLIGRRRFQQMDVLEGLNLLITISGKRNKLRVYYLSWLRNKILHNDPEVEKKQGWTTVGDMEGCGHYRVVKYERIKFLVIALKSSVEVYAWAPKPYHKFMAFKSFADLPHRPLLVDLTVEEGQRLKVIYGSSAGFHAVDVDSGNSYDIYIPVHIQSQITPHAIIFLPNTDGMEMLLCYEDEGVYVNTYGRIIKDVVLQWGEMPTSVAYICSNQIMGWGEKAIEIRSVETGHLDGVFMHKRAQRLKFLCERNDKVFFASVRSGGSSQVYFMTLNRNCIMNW
T10 sequence (P41743 whole entry): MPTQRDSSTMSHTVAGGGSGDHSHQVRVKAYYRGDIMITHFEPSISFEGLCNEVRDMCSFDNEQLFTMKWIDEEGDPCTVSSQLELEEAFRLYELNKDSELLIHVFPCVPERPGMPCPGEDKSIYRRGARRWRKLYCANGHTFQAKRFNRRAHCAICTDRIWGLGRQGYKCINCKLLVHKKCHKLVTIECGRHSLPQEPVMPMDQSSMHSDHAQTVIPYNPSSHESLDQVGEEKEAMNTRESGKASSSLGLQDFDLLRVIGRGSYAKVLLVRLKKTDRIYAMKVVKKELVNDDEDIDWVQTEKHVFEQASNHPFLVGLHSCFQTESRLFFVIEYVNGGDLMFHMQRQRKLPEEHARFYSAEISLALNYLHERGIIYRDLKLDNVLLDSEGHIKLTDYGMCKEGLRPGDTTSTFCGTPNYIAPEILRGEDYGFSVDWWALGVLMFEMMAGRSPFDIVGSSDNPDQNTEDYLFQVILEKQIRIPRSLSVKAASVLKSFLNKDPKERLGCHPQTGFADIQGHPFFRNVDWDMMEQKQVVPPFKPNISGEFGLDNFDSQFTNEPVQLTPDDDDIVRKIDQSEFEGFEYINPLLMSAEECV
Haspin, sequence (Q8TF76 whole entry): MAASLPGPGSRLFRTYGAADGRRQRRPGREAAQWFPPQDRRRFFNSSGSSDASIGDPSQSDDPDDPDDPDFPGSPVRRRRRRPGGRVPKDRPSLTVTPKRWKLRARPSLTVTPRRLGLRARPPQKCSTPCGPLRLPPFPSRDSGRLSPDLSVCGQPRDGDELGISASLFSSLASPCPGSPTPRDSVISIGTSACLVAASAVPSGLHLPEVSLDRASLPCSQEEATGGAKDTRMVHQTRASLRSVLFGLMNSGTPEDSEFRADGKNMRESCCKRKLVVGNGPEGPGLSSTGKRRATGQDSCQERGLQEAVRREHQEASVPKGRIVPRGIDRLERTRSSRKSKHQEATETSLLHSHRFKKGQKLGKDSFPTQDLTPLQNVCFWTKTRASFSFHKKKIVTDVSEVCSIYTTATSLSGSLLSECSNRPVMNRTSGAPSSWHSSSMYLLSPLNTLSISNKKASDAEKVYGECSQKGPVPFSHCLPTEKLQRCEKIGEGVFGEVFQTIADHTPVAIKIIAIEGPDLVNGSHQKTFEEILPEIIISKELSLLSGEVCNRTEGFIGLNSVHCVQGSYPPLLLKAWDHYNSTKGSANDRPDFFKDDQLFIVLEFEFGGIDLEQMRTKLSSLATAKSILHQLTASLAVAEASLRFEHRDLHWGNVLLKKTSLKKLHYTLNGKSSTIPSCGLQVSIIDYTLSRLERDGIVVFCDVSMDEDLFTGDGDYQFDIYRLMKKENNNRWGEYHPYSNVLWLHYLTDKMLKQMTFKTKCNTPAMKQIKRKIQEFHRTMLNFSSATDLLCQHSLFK
NuaK1, sequence (O60285 whole entry): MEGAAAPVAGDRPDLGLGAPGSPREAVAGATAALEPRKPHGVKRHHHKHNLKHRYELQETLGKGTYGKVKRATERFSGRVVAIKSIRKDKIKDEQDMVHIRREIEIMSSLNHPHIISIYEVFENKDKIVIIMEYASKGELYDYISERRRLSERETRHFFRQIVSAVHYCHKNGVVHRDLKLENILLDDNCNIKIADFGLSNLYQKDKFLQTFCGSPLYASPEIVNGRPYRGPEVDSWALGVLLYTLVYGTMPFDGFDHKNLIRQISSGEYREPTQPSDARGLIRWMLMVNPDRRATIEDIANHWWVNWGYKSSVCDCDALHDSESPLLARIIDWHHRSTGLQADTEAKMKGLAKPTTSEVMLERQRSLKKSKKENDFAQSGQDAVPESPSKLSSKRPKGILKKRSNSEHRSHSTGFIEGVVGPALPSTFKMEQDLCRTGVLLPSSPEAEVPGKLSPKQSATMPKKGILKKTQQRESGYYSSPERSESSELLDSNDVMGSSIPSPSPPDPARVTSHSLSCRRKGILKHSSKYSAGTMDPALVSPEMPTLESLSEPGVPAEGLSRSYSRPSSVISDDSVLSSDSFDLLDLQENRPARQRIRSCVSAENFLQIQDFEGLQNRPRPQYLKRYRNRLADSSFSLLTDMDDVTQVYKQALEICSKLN
FLT4, sequence (P35916 whole entry): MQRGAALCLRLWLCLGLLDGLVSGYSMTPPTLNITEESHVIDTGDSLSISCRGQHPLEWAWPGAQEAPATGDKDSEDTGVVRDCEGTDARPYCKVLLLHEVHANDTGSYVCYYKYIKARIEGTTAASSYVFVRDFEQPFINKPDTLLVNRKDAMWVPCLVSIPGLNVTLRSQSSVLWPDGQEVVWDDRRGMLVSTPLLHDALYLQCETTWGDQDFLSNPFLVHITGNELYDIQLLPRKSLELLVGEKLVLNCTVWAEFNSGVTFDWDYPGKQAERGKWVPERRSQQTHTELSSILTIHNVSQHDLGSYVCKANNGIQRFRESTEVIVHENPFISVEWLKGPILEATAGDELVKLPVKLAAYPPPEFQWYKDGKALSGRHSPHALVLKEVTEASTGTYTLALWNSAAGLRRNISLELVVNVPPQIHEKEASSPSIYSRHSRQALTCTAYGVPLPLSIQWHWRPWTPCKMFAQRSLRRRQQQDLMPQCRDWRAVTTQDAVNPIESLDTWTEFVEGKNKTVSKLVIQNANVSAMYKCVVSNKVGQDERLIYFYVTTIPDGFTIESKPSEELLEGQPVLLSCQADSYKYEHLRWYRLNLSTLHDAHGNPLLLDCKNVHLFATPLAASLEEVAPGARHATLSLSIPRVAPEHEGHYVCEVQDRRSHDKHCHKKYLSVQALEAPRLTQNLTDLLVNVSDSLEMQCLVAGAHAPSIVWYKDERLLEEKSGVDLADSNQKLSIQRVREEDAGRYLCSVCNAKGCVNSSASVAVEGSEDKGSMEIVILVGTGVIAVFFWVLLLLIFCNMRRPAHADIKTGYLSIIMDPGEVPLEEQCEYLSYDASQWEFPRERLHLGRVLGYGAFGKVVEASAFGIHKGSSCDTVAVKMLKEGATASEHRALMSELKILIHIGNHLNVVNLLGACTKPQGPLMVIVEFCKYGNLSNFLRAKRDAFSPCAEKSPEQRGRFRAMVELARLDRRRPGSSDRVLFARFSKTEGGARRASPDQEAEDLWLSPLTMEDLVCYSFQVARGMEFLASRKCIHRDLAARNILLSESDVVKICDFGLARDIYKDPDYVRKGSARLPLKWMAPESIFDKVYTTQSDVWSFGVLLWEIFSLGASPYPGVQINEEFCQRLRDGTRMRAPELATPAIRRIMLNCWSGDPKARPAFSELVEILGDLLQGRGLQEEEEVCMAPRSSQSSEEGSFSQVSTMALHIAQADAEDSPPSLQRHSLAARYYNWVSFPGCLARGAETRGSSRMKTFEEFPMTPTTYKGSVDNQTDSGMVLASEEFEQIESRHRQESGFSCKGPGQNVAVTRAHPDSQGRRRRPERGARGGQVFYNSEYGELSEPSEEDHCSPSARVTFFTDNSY
TSSK3, sequence (Q96PN8 whole entry): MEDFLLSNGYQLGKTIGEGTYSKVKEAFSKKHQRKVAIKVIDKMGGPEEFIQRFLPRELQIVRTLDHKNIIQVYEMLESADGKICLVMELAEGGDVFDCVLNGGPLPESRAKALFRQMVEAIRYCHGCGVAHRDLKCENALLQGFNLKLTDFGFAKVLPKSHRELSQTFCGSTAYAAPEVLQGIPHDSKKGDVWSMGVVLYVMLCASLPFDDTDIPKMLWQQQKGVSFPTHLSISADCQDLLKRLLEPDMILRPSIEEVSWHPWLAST

Work on `c1cc(-c2ccc3[nH]ncc3c2)ccn1` [TG693, 5-(4-pyridinyl)-1H-indazole] yielded an inhibition at 1 µM (FLT3) of 17.5%, an inhibition at 1 µM (MAPKAPK2) of -26% and an inhibition at 1 µM (CaMK1α) of 1.5%. For the same molecule, the inhibition at 1 µM (CDK6/CycD3) was 9.1%, the inhibition at 1 µM (MINK) was 23.2% and the inhibition at 1 µM (SGK) was 5.6%. It also gave an inhibition at 1 µM (BRSK1) of 1.1%, an inhibition at 1 µM (AurA) of -6.2% and an inhibition at 1 µM (p70S6Kβ) of 18.7%. It also gave an inhibition at 1 µM (SRC) of 3.2%, an inhibition at 1 µM (IKKβ) of 14.6% and an inhibition at 1 µM (PKD1) of -15.8%. It also gave an inhibition at 1 µM (IRAK1) of 4.2%, an inhibition at 1 µM (NEK1) of -1.5% and an inhibition at 1 µM (SRPK2) of 0.5%. It also gave an inhibition at 1 µM (TXK) of -1%, an inhibition at 1 µM (NuaK1) of 7.5% and an inhibition at 1 µM (SPHK1) of -2.3%. For the same molecule, the inhibition at 1 µM (MNK1) was 45.7%, the inhibition at 1 µM (TSSK3) was 0.8% and the inhibition at 1 µM (PHKG2) was 6.3%. It also gave an inhibition at 1 µM (DDR1) of -6%, an inhibition at 1 µM (FLT4) of -0.3% and an inhibition at 1 µM (TRKA) of 5.1%. It also gave an inhibition at 1 µM (ROCK1) of 27.6%, an inhibition at 1 µM (BTK) of -9.5% and an inhibition at 1 µM (CDK7/CycH/MAT1) of 6.2%. The inhibition at 1 µM (CDK3/CycE1) was 11.4%, the inhibition at 1 µM (PKCι) was -6.8% and the inhibition at 1 µM (Haspin) was 92.8%. The inhibition at 1 µM (SGK3) was -3.2%.
